Reference: patent publication US20100048704A1, “PHARMACEUTICAL AND NUTRACEUTICAL PRODUCTS COMPRISING VITAMIN K2” (NATTOPHARMA ASA, priority 2006, published 2010)

How the values were obtained:
[1] = system: vascular smooth muscle cells, MG-63 cell line, HepG2 cell line; assay: K epoxide formation without warfarin under cell starvation (1% fetal calf serum); assay type: cell-based; conditions: no warfarin, fetal calf serum decreased to 1% (v/v)
Procedure: (§1) This series of cell culture experiments describe vitamin K uptake and metabolism under various conditions. The following forms of vitamin K were compared: K1, MK-4, MK-7, MK-8 and MK-9. They were tested in three different cell types: the vascular smooth muscle cells, the osteoblast-like MG-63 cell line and the hepatocyte-like HepG2 cell line. In all experiments the vitamins were used as a mixture containing 1 μmol/L of each vitamin. All data are the means of triplicate experiments.
(§2) Since under standard cell culture conditions no epoxides are formed, we have applied sub-optimal growth conditions by decreasing the fetal calf serum in the culture medium to 1% (v/v). […] This was ruled out in an experiment in which VSMC and MG63 were grown at 1% FCS and with only one single form of vitamin K present (1 μmol/L).

[2] = Stability of K vitamins in cell culture media with no cells present; assay type: physicochemical; conditions: 1 μM of each vitamin, three growth media, over 48 hours
Procedure: Here we have checked the stability of the various forms of vitamin K (1 μM of each) in the three cell culture media with no cells present.

[3] = system: vascular smooth muscle cells, MG-63 cell line, HepG2 cell line; assay: Cellular vitamin K uptake in three cell types; assay type: cell-based; conditions: for cellular uptake compared with other K vitamins: all cells, mixture containing 1 μmol/L of each vitamin
Procedure: as §1
(§3) Cells were grown until 80% confluence after which vitamin K was added in different concentrations (see FIGS. 5A-C). The added vitamin K concentration is given as nmol/L of culture medium, the vitamin K recovered is given as nmol/g of cellular protein. Note the different scales for each vitamin.
Cellular uptake of K vitamins was followed in time. In all cases a mixture of the various K vitamins (1 μmol/L final concentration in the culture medium) was added to the cells after they had grown to 80% confluence. […] The mechanism behind this cellular preference for MK-7 is not quite clear.

[4] = system: vascular smooth muscle cells; assay: Carboxylated matrix Gla-protein in culture medium with a single form of vitamin K; assay type: cell-based; conditions: 1% FCS, single form of vitamin K 1 μmol/L, 24 hours incubation
Procedure: as §2

[5] = system: vascular smooth muscle cells, MG-63 cell line, HepG2 cell line; assay: K epoxide formation in the presence of warfarin (bypassing of warfarin) in three cell types; assay type: cell-based; conditions: for interference with warfarin: 10 μmol/L warfarin added 18 h before and present during vitamin K incubation
Procedure: as §1
(§4) Under normal conditions, all forms of vitamin K are taken up in their quinone form, and they are reduced into the hydroquinone before being active as a cofactor for the enzyme gammaglutamylcarboxylase. During the carboxylation they are oxidized into epoxides, which can be reduced by the membrane-bound enzyme VKOR. VKOR forms the target for drugs known as coumarin derivatives, which inactivate the enzyme and thus block the recycling of K epoxides. Vitamin K quinones (and not the epoxides) can be reduced by a second enzyme system, known as DT diaphorase. […] Coumarin derivatives are widely used as oral anticoagulants; their mode of action is based on the inhibition of clotting factor carboxylation in the liver. Interference with coumarin derivatives is thus a potential risk of vitamin K supplements. Therefore we have investigated whether and to which extend the various K vitamins interfere with warfarin. In the study described, 10 μmol/L of warfarin was added to the culture media 18 h before adding vitamin K. Also during incubation with K vitamins this concentration of warfarin was present.

MG63 [6] = assay: Carboxylated osteocalcin in culture medium with a single form of vitamin K; assay type: cell-based; conditions: 1% FCS, single form of vitamin K 1 μmol/L, 24 hours incubation
Procedure: as §2

MG63 cell line = assay: K epoxide formation in the presence of warfarin in MG63; assay type: cell-based; conditions: 10 μmol/L warfarin
Procedure: as §1
as §4, with “In the study described, 10 μmol/L of warfarin was added to the culture media 18 h before adding vitamin K. Also during incubation with K vitamins this concentration of warfarin was present.” left out

Matrix Gla-Protein (MGP) = assay: Carboxylated / non-carboxylated MGP in plasma by sandwich ELISA during fish oil and MK-7 intake; assay type: in vivo, human; conditions: 5 g/day fish oil plus 10 μg/day MK-7, months 2, 3 and 4
Procedure: (§5) Twenty healthy males (43±8 years of age) were enrolled in the study. The mean body mass index was 25.1±3.5 kg/m^2. All subjects received 5 grams of fish oil (containing 35% EPA, 25% DHA and 10% other n-3 PUFA) per day during 4 months. During the last 3 months of the study all volunteers received additionally one soft gel capsule per day providing 10 μg of MK-7. Blood samples were collected in citrate every month to prepare platelet-rich plasma. The endogenous thrombin potential (ETP), reflecting the total thrombin activity during coagulation, was monitored according to H. C. Hemker et al. (Pathophysiology of Haemostasis and Thrombosis 2003; 33:4-15). Carboxylated and non-carboxylated Matrix Gla-Protein (MGP) species were monitored using sandwich ELISAs based on conformation-specific antibodies obtained from VitaK BV (Maastricht, The Netherlands) with normal pooled plasma as a reference. The ratio between carboxylated and non-carboxylated MGP is taken as a measure for vascular vitamin K status. All values are expressed as a percentage of those in the pooled reference plasma.

[7] = system: vascular smooth muscle cells; assay: Cellular MK-7 uptake in vascular smooth muscle cells; assay type: cell-based; conditions: FIG. 5D
Procedure: as §1, §3

[8] = system: blood clotting factor carboxylation; conditions: dosages as high as 100 μg per day; cited from earlier work
[9] = system: endogenous thrombin potential (ETP); assay: Endogenous thrombin potential (ETP) in platelet-rich plasma of volunteers on fish oil, with or without MK-7; assay type: in vivo, human
Excerpt: as §5, with “During the last 3 months of the study all volunteers received additionally one soft gel capsule per day providing 10 μg of MK-7.” left out

osteocalcin = assay: Carboxylated / non-carboxylated osteocalcin in serum during fish oil and MK-7 intake; assay type: in vivo, human; conditions: 5 g/day fish oil plus 10 μg/day MK-7, months 3 and 4
Excerpt: In the same experiment as described above, also serum was collected, in which carboxylated and non-carboxylated osteocalcin species were monitored using the conformation-specific osteocalcin kits from Takara (Japan).

MG63 [10] = assay: Cellular MK-7 uptake in MG63; assay type: cell-based; conditions: FIG. 5D
Procedure: as §1, §3

[11] = Stability of MK-7 dissolved in fish oil and krill oil; assay type: physicochemical; conditions: for time compositions remained stable: MK-7 mixed with fish oil or krill oil
Procedure: Compositions as described in Examples 2 and 4 (MK-7 dissolved in fish oil and krill oil, respectively) were prepared to a final concentration of 2 μg of MK-7 per g of oil. Samples were prepared in sealed glass bottles and kept in a dark place at room temperature, 40° C. and 100° C., respectively. At regular times, samples were taken and analyzed for their MK-7 content. No loss of MK-7 was observed, even after 2 weeks at 100° C.

Question: Which “epoxides found without warfarin at decreased fetal calf serum” value [1] does the source give for `CC1=C(C/C=C(\C)CCC[C@H](C)CCC[C@H](C)CCCC(C)C)C(=O)c2ccccc2C1=O` [K1, vitamin K1, reference compound] here?
Answer: The value was “mainly found”.

Question: And the “stability in growth media” value [2]?
Answer: The value was “fairly stable”.

Question: And the “cellular uptake compared with other K vitamins” value [3]?
Answer: Its value is “much less”.

Question: What about the “Carboxylated matrix Gla-protein in the culture medium” value (“Carboxylated matrix Gla-protein” for short) [4] of the same compound?
Answer: The value was 12.4 ng/mL.

Question: What about the interference with warfarin [5] of the same compound?
Answer: Its interference with warfarin is “interfere substantially”.

Question: And the “Carboxylated osteocalcin in the culture medium” value (“Carboxylated osteocalcin” below) (MG63 [6])?
Answer: The value was 3.2 ng/mL.

Question: With `CC(C)=CCC/C(C)=C/CC/C(C)=C/CC/C(C)=C/CC1=C(C)C(=O)c2ccccc2C1=O` [MK-4] as the compound, how does the “epoxides found without warfarin at decreased fetal calf serum” value [1] read?
Answer: The value was “mainly found”.

Question: What about the “cellular uptake compared with other K vitamins” value [3] of the same compound?
Answer: Its value is “much less”.

Question: And the “Carboxylated matrix Gla-protein” value [4]?
Answer: The value was 10.7 ng/mL.

Question: What about the interference with warfarin [5] of the same compound?
Answer: The interference with warfarin was “interfere substantially”.

Question: What about the “Carboxylated osteocalcin” value (MG63 [6]) of the same compound?
Answer: Its value is 4.1 ng/mL.

Question: What about the “K vitamin epoxides identified in the presence of warfarin” value (MG63 cell line) of the same compound?
Answer: The value was “could only identify MK-4 epoxide”.

Question: Which “stability in growth media” value [2] does the source give for `CC(C)=CCC/C(C)=C/CC/C(C)=C/CC/C(C)=C/CC/C(C)=C/CC/C(C)=C/CC/C(C)=C/CC1=C(C)C(=O)c2ccccc2C1=O` [MK-7] here?
Answer: The value was “fairly stable”.

Question: And the “change in MGP carboxylation (ratio carboxylated / non-carboxylated MGP)” value (Matrix Gla-Protein (MGP))?
Answer: The value was “significance was lost”.

Question: What about the “vitamin K uptake compared between cell types” value [7] of the same compound?
Answer: The value was “highest”.

Question: What about the “effect on warfarin anticoagulation” value [8] of the same compound?
Answer: The value was “counteract the effect of warfarin”.

Question: What about the “cellular uptake compared with other K vitamins” value [3] of the same compound?
Answer: Its value is “taken up better than other K vitamins”.

Question: And the “cellular uptake compared with other K vitamins (dose-response, Experiment 6)” value ([3]; all systems, notably extrahepatic cells, cells at 80% confluence)?
Answer: The value was “taken up surprisingly better than the other K vitamins”.

Question: And the “cellular uptake compared with other K vitamins (time course, Experiment 7)” value ([3]; all three cell systems, mixture 1 μmol/L)?
Answer: The value was “taken up better than any of the other vitamins”.

Question: What about the “Carboxylated matrix Gla-protein” value [4] of the same compound?
Answer: The value was 13.5 ng/mL.

Question: What about the “fish-oil induced hypocoagulability (ETP)” value ([9]; 10 μg/day MK-7 during last 3 of 4 months on 5 g/day fish oil) of the same compound?
Answer: The value was “not counteracted”.

Question: What about the “ETP lowering effect of marine oils” value ([9]; MK-7 100 μg per day and higher, marine oil intake 5 grams per day) of the same compound?
Answer: Its value is “completely reversed”.

Question: What about the “endogenous thrombin potential (ETP)” value ([9]; MK-7 between 1 and 10 μg/day, marine oil intake 5 grams per day) of the same compound?
Answer: Its value is “did not affect”.

Question: What about the “utilization of K-vitamins in the presence of warfarin (rank order)” value ([5]; 10 μmol/L warfarin) of the same compound?
Answer: The value was “MK-7>MK-8>MK-9”.

Question: What about the “Carboxylated osteocalcin” value (MG63 [6]) of the same compound?
Answer: Its value is 3.9 ng/mL.

Question: And the “change in osteocalcin carboxylation” value (osteocalcin)?
Answer: The value was “significance was lost”.

Question: What about the “vitamin K uptake compared between cell types” value (MG63 [10]) of the same compound?
Answer: Its value is “lowest”.

Question: What about the “loss of MK-7 content” value ([11]; 2 μg MK-7 per g fish oil or krill oil, sealed glass bottles, dark, room temperature, 40° C., 100° C., even after 2 weeks at 100° C.) of the same compound?
Answer: The value was “No loss”.

Question: And the “time compositions remained stable” value ([11]; 40° C.)?
Answer: The value was ≥ 6 months.

Question: And the “time compositions remained stable” value ([11]; 100° C.)?
Answer: The value was “at least 2 weeks”.

Question: What about the “time compositions remained stable” value ([11]; room temperature) of the same compound?
Answer: Its value is ≥ 3 years.

Question: Which “stability in growth media” value [2] does the source give for `CC(C)=CCC/C(C)=C/CC/C(C)=C/CC/C(C)=C/CC/C(C)=C/CC/C(C)=C/CC/C(C)=C/CC/C(C)=C/CC1=C(C)C(=O)c2ccccc2C1=O` [MK-8] here?
Answer: Its value is “fairly stable”.

Question: What about the “cellular uptake compared with other K vitamins” value [3] of the same compound?
Answer: Its value is “somewhat less”.

Question: What about the “utilization of K-vitamins in the presence of warfarin (rank order)” value ([5]; 10 μmol/L warfarin) of the same compound?
Answer: The value was “MK-7>MK-8>MK-9”.

Question: Which results are given for `CC(C)=CCC/C(C)=C/CC/C(C)=C/CC/C(C)=C/CC/C(C)=C/CC/C(C)=C/CC/C(C)=C/CC/C(C)=C/CC/C(C)=C/CC1=C(C)C(=O)c2ccccc2C1=O` [MK-9]?
Answer: stability in growth media [2]: fairly stable; cellular uptake compared with other K vitamins [3]: somewhat less; utilization of K-vitamins in the presence of warfarin (rank order) ([5]; 10 μmol/L warfarin): MK-7>MK-8>MK-9; epoxide formation in the presence of warfarin ([5]; 10 μmol/L warfarin, FIG. 7): hardly formed
